In publication PMC9542723, “Correlation between the drug concentration of polymyxin B and polymyxin B‐associated acute kidney injury in critically ill patients: A prospective study” (Pharmacology Research & Perspectives, 2022):
Positions of bridges follow the written chain, without caps; N, C: chain ends. Non-standard residues stand in square brackets, D forms with d. Residues, ends and D or L forms follow the SMILES beside them. *: point of attachment. X1 = CC[C@H](C)CCCCC(=O)*; Dab = NCC[C@H](N)C(=O)O

Key:
[1] = test system: human renal tubular cells; conditions: cited from earlier work
Excerpt: In recent years, PB‐AKI has been increasingly reported, which is a problem that should not be ignored.[13], [17], [28] Studies have shown that the main features of PB‐AKI include acute renal tubular injury and reduced Ccr.[25] In a mouse study, PB distribution in renal tissue after intravenous administration was detected using PB‐specific monoclonal antibody immunostaining and was mainly concentrated in the renal cortex, especially in the proximal tubu ...

critically ill patients [2] = experiment: ROC curve analysis of PB PK parameters for predicting PB-AKI; set-up: species or system human; conditions: best cut point by maximised index
Excerpt: Data are reported as categorical variables or numerical variables. Continuous normally distributed numerical variables are expressed as the means ± standard deviations, and continuous non‐normally distributed variables are expressed as the median (interquartile range). ANOVA test was used to compare the continuous normally distributed variables, Kruskal–Wallis rank sum test was used to compare the continuous non‐normally distributed variables, and Chi‐square test was used to compare the rates. The sensitivity and specificity of C 1/2, C min, and estimated AUC0–24 for the development of AKI were determined using ROC curve analysis. AKI occurrence as the outcome, to maximize the Jorden index to find the best entry point. Statistical significance was defined as p < .05. SPSS version 22.0 (SPSS Inc.) was used for all statistical calculations.

critically ill patients [3] = conditions: previous clinical studies; cited from earlier work
Method: Estimated AUC0–24 is a predictor for PB‐AKI, and an estimated AUC0–24 ≥ 97.72 mg·h/L was identified as a significant breakpoint for PB‐AKI.

[4] = Steady-state serum concentrations of PB (PB1 + PB2) by UHPLC-MS/MS in critically ill patients; format: in vivo, human; conditions: median (IQR); for Estimated AUC0–24: double the AUC0-12 by linear trapezoidal approximation from three samples
Method: (§1) Inclusion criteria included age ≥ 18 years and intravenous administration of PB for more than 3 days. Exclusion criteria included PB administration of a daily dose of 1.5–2.5 mg/kg <3 days, underlying chronic renal insufficiency or existing AKI, or renal replacement therapy already performed. The loading dose and maintenance dose of PB for each patient depended on the doctors' decisions at a daily dose of 1.5–2.5 mg/kg in evenly two doses. PB was administered as an intermittent infusion over approximately 1 h. Patients were divided into an AKI group and a non‐AKI group according to whether they developed new AKI after PB application according to Kidney Disease Improving Global Outcomes (KDIGO) diagnostic criteria.[20] An increase in serum creatinine (Scr) to 50% of the base value within 7 days or an increase in Scr of more than 26.5 μmol/L within 2 days or oliguria is diagnosed as AKI according to KDIGO's diagnostic criteria.
The estimated area under the plasma concentration–time curve from 0 to 24 h (AUC0–24) was the main PK variable for PB. From each patient, three blood samples were taken after at least […] doses of PB: blood sample A (C max) was collected within 30 min after the end of intravenous infusion of PB for the peak concentration, blood sample B (C 1/2) was a mid‐dose blood sample taken 50% of the way through a dosing interval, and blood sample C (C min) was a pre‐dose concentration taken at the end of a dosing interval (within 30 min of the next dose, see Figure 1). The serum was separated and stored at −70°C until assay.
The PB1 and PB2 serum concentrations were measured using a validated ultrahigh performance liquid chromatography–tandem mass spectrometry assay method.[21] The C max, C 1/2, and C min of steady‐state (after at least 5 doses) PB1 and PB2 components were determined according to the above method: Cmax=Cmax−PB1+Cmax−PB2, C1/2=C1/2−PB1+C1/2−PB2, Cmin=Cmin−PB1+Cmin−PB2,
The estimated area under the concentration–time curve from 0 to 12 h (AUC0–12) was calculated using the linear trapezoidal approximation[22] and the estimated AUC0–24 from 0 to 24 h (AUC0–24) was calculated as double the AUC0–12, [23] assuming a steady state (after at least 4–5 doses) when PB was administered every 12 h.

critically ill patients [5] = experiment: Occurrence of PB-associated acute kidney injury (KDIGO criteria) after intravenous PB; format: in vivo, human; conditions: critically ill patients without basic renal insufficiency, 26/52, PB i.v. more than 3 days
Method: as §1

Compound | Concentration of polymyxin in renal tubular cells relative to extracellular [1] [times] | Cutoff value for estimated AUC0–24 predicting PB-AKI (critically ill patients [2]) [ng·h/mL] | Cutoff value for C 1/2 predicting PB-AKI (critically ill patients [2]; p = .003) [mg/L] | Estimated AUC0–24 that predicts nephrotoxicity of PB treatment (critically ill patients [3]) [ng·h/mL] | Estimated AUC0–24 ([4]; AKI group (n = 26)) | level at 6 h ([4]; human, iv, AKI group (n = 26), 50% of the way through a 12 h dosing interval, serum, sum PB1+PB2, UHPLC-MS/MS, read-out: C 1/2, middle serum concentration through a dosing interval) [ng/mL] | Cmax ([4]; human, iv, AKI group (n = 26), within 30 min after end of 1 h i.v. infusion, serum, sum PB1+PB2, UHPLC-MS/MS, read-out: C max, peak serum concentration of PB) [ng/mL] | Estimated AUC0–24 ([4]; non-AKI group (n = 26)) | Estimated AUC0–24 ([4]; total patients (N = 52)) | C max, peak serum concentration of PB ([4]; total patients (N = 52), within 30 min after end of 1 h i.v. infusion, daily dose 1.5-2.5 mg/kg in two doses, serum, sum PB1+PB2, UHPLC-MS/MS) | Incidence of AKI caused by intravenous PB (critically ill patients [5]) [%]
polymyxin | 4760 | – | – | – | – | – | – | – | – | – | –
CC[C@H](C)CCCCC(=O)N[C@@H](CCN)C(=O)N[C@H](C(=O)N[C@@H](CCN)C(=O)N[C@H]1CCNC(=O)[C@H]([C@@H](C)O)NC(=O)[C@H](CCN)NC(=O)[C@H](CCN)NC(=O)[C@H](CC(C)C)NC(=O)[C@@H](Cc2ccccc2)NC(=O)[C@H](CCN)NC1=O)[C@@H](C)O [PB, polymyxin B] (X1-[Dab]T[Dab][Dab][Dab][dF]L[Dab][Dab]T; lactam 4-C) | – | 97720 | 3.375 | > 100000 | 102.37 (86.18–120.61) mg·h/L | 3940 | 6800 | 85.5 (69.16–97.55) mg·h/L | 92.07 (77.11–118.02) mg·h/L | 6.69 (5.56–8.36) mg/L | 50
